Reference: US10359701B2, “Material for forming underlayer film for lithography, composition for forming underlayer film for lithography, underlayer film for lithography and pattern forming method” (Mitsubishi Gas Chemical Company, Inc., priority 2015, dated 2019)

Assays:
[1] = Solubility: amount of compound dissolved in PGMEA at 23° C.
Procedure: The amount of the compound dissolved in propylene glycol monomethyl ether acetate (PGMEA) was measured at 23° C., and the results were evaluated according to the following criteria.
Evaluation A: 10% by mass or more
Evaluation B: less than 10% by mass

[2] = Thermogravimetric measurement (TG) of the synthesized compound; format: physicochemical

## N#COc1ccc(-c2ccc(OC#N)c(C(c3ccc(-c4ccccc4)cc3)c3cc(-c4ccc(OC#N)cc4)ccc3OC#N)c2)cc1 [BiF-CN, bis(4,4′-cyanatobiphenyl) biphenylmethane]
[1]
  solubility in PGMEA: ≥ 10 % by mass
  solubility in PGMEA (Evaluation): A (10% by mass or more)
[2]
  20% thermal weight loss temperature: ≥ 400 °C

## N#COc1ccc(C(c2ccccc2)c2ccc(OC#N)cc2)cc1 [B-CN, bis(4-cyanatophenyl)phenylmethane]
[1]
  solubility in PGMEA: ≥ 10 % by mass
  solubility in PGMEA (Evaluation): A (10% by mass or more)
[2]
  20% thermal weight loss temperature: ≥ 400 °C
